Measured values published in US10064858B2, “Methods and compositions for treating bacterial infections with iron chelators” (THE UNITED STATES OF AMERICA, AS REPRESENTED BY THE …, priority 2011, dated 2018).

What was measured:
[1] = tested on: clinical isolates of A. baumannii; assay: MIC for clinical isolates in RPMI (low iron) media (Table 4); type: cell-based; design: key to MIC of Iron Chelators: NG = no growth in table 4; conditions: for MIC: Acinetobacter baumannii
Protocol: […] […] Tests were performed in triplicate. MIC of iron chelators were determined for noscomial ESKAPE pathogens.
For a number of strains, the iron chelators produced no growth of bacteria (NG).

E. coli strain EC35218 = assay: Growth (OD600) with chelator, Rifampin or both; type: cell-based; conditions: CAMHB
Protocol: E. coli strain EC35218 was grown in CAMHB and challenged with 1.5×MIC compound 4 (Var) or 1.5×MIC Triapine (Tri) with or without 0.75×MIC Rifampin (Rif). Growth was estimated by absorbance at 600 nm (y-axis) at 0 or 24 hours.

[2] = tested on: clinical isolates of A. baumannii; assay: MIC for clinical isolates in CAMHB media (Table 3); type: cell-based; conditions: Acinetobacter baumannii
Protocol: Individual MICs were determined following the microdilution method recommended by CLSI in cationic-adjusted Mueller-Hinton Broth (CAMHB), or M9 media. […] Tests were performed in triplicate. MIC of iron chelators were determined for noscomial ESKAPE pathogens.

[3] = tested on: A. baumannii strain AB19606; assay: Growth (OD600) with chelator, Rifampin or both; type: cell-based; conditions: CAMHB
Protocol: A. baumannii strain AB19606 was grown in CAMHB and challenged with 1.5×MIC compound 4 (Var) or 1.5×MIC Triapine (Tri) with or without 0.75×MIC Rifampin (Rif). Growth was estimated by absorbance at 600 nm (y-axis) at 0 or 24 hours.

[4] = Stability in aqueous solution; type: physicochemical
[5] = tested on: A. baumannii, strain AB5711; assay: Growth curves (OD600) in CAMHB with compound 4; type: cell-based
Source text: It should be noted that the inhibition occurred in a dose-responsive manner.

[6] = AB3638, read-out: MIC of Iron Chelators
[7] = AB3785, read-out: MIC of Iron Chelators
[8] = AB3806, read-out: MIC of Iron Chelators
[9] = AB3917, read-out: MIC of Iron Chelators
[10] = AB4025, read-out: MIC of Iron Chelators
[11] = AB4026, read-out: MIC of Iron Chelators
[12] = AB4027, read-out: MIC of Iron Chelators
[13] = AB4052, read-out: MIC of Iron Chelators
[14] = AB4269, read-out: MIC of Iron Chelators
[15] = AB4448, read-out: MIC of Iron Chelators
[16] = AB4456, read-out: MIC of Iron Chelators
[17] = AB4490, read-out: MIC of Iron Chelators
[18] = AB4498, read-out: MIC of Iron Chelators
[19] = AB4795, read-out: MIC of Iron Chelators
[20] = AB4857, read-out: MIC of Iron Chelators
[21] = AB4878, read-out: MIC of Iron Chelators
[22] = AB4932, read-out: MIC of Iron Chelators
[23] = AB4957, read-out: MIC of Iron Chelators
[24] = AB4991, read-out: MIC of Iron Chelators
[25] = AB5001, read-out: MIC of Iron Chelators
[26] = AB5075, read-out: MIC of Iron Chelators
[27] = AB5197, read-out: MIC of Iron Chelators
[28] = AB5256, read-out: MIC of Iron Chelators
[29] = AB5674, read-out: MIC of Iron Chelators
[30] = AB5711, read-out: MIC of Iron Chelators
[31] = 1.5×MIC chelator in combination with 0.75×MIC Rifampin
[32] = alone: 1.5×MIC chelator or 0.75×MIC Rifampin

Question: For `OCCN1CCN(CCc2ccc(O)c3ncccc23)CC1` [Compound 4, 5-(2-(4-(2-hydroxyethyl)piperazin-1-yl)ethyl)-8-quinolinol], which “MIC of Iron Chelators” value ([1]; AB967) is on record?
Answer: The value was “NG”.

Question: What about the “MIC of Iron Chelators” value ([1]; AB2828) of the same compound?
Answer: The value was “NG”.

Question: And the “MIC of Iron Chelators” value ([1]; AB3340)?
Answer: Its value is “NG”.

Question: What about the “MIC of Iron Chelators” value ([1]; AB3560) of the same compound?
Answer: Its value is “NG”.

Question: And the “MIC of Iron Chelators” value ([1]; AB3927)?
Answer: The value was “NG”.

Question: What about the MIC [1, 6] of the same compound?
Answer: The MIC was 64 µg/mL.

Question: What about the MIC [1, 7] of the same compound?
Answer: The MIC was 32 µg/mL.

Question: What about the MIC [1, 8] of the same compound?
Answer: The MIC was 32 µg/mL.

Question: And the MIC [1, 9]?
Answer: Its MIC is 32 µg/mL.

Question: What about the MIC [1, 10] of the same compound?
Answer: The MIC was 32 µg/mL.

Question: And the MIC [1, 11]?
Answer: Its MIC is 32 µg/mL.

Question: What about the MIC [1, 12] of the same compound?
Answer: Its MIC is 32 µg/mL.

Question: And the MIC [1, 13]?
Answer: Its MIC is 64 µg/mL.

Question: What about the MIC [1, 14] of the same compound?
Answer: Its MIC is 32 µg/mL.

Question: And the MIC [1, 15]?
Answer: Its MIC is 64 µg/mL.

Question: And the MIC [1, 16]?
Answer: Its MIC is 32 µg/mL.

Question: What about the MIC [1, 17] of the same compound?
Answer: The MIC was 32 µg/mL.

Question: And the MIC [1, 18]?
Answer: The MIC was 64 µg/mL.

Question: What about the MIC [1, 19] of the same compound?
Answer: Its MIC is 32 µg/mL.

Question: What about the MIC [1, 20] of the same compound?
Answer: Its MIC is 64 µg/mL.

Question: What about the MIC [1, 21] of the same compound?
Answer: The MIC was 64 µg/mL.

Question: And the MIC [1, 22]?
Answer: Its MIC is 125 µg/mL.

Question: And the MIC [1, 23]?
Answer: Its MIC is 125 µg/mL.

Question: And the MIC [1, 24]?
Answer: Its MIC is 8 µg/mL.

Question: And the MIC [1, 25]?
Answer: Its MIC is 32 µg/mL.

Question: What about the MIC [1, 26] of the same compound?
Answer: Its MIC is 64 µg/mL.

Question: And the MIC [1, 27]?
Answer: The MIC was 32 µg/mL.

Question: And the MIC [1, 28]?
Answer: The MIC was 125 µg/mL.

Question: And the MIC [1, 29]?
Answer: Its MIC is 32 µg/mL.

Question: And the MIC [1, 30]?
Answer: The MIC was 64 µg/mL.

Question: What about the “reduction of bacteria (absorbance at 600 nm, 24 hours)” value (“reduction of bacteria” for short) (E. coli strain EC35218; [31]) of the same compound?
Answer: Its value is “significant reduction in bacteria”.

Question: What about the “reduction of bacteria” value (E. coli strain EC35218; [32]) of the same compound?
Answer: The value was “did not result in a reduction of bacteria”.

Question: And the MIC ([2]; AB967, read-out: MIC of Iron Chelators)?
Answer: Its MIC is 500 µg/mL.

Question: And the MIC ([2]; AB2828, read-out: MIC of Iron Chelators)?
Answer: Its MIC is 500 µg/mL.

Question: What about the MIC ([2]; AB3340, read-out: MIC of Iron Chelators) of the same compound?
Answer: The MIC was 500 µg/mL.

Question: And the MIC ([2]; AB3560, read-out: MIC of Iron Chelators)?
Answer: The MIC was 500 µg/mL.

Question: And the MIC [2, 6]?
Answer: Its MIC is 500 µg/mL.

Question: And the MIC [2, 7]?
Answer: The MIC was 500 µg/mL.

Question: What about the MIC [2, 8] of the same compound?
Answer: The MIC was 1000 µg/mL.

Question: And the MIC [2, 9]?
Answer: Its MIC is 500 µg/mL.

Question: And the MIC ([2]; AB3927, read-out: MIC of Iron Chelators)?
Answer: Its MIC is 500 µg/mL.

Question: What about the MIC [2, 10] of the same compound?
Answer: The MIC was 500 µg/mL.

Question: What about the MIC [2, 11] of the same compound?
Answer: Its MIC is 500 µg/mL.

Question: And the MIC [2, 12]?
Answer: Its MIC is 500 µg/mL.

Question: What about the MIC [2, 13] of the same compound?
Answer: Its MIC is 1000 µg/mL.

Question: What about the MIC [2, 14] of the same compound?
Answer: Its MIC is 500 µg/mL.

Question: And the MIC [2, 15]?
Answer: The MIC was 500 µg/mL.

Question: And the MIC [2, 16]?
Answer: Its MIC is 500 µg/mL.

Question: And the MIC [2, 17]?
Answer: Its MIC is 500 µg/mL.

Question: And the MIC [2, 18]?
Answer: Its MIC is 500 µg/mL.

Question: And the MIC [2, 19]?
Answer: The MIC was 500 µg/mL.

Question: And the MIC [2, 20]?
Answer: The MIC was 500 µg/mL.

Question: And the MIC [2, 21]?
Answer: The MIC was 500 µg/mL.

Question: And the MIC [2, 22]?
Answer: Its MIC is 500 µg/mL.

Question: And the MIC [2, 23]?
Answer: Its MIC is 500 µg/mL.

Question: What about the MIC [2, 24] of the same compound?
Answer: The MIC was 500 µg/mL.

Question: And the MIC [2, 25]?
Answer: The MIC was 500 µg/mL.

Question: And the MIC [2, 26]?
Answer: Its MIC is 500 µg/mL.

Question: And the MIC [2, 27]?
Answer: Its MIC is 500 µg/mL.

Question: What about the MIC [2, 28] of the same compound?
Answer: The MIC was 500 µg/mL.

Question: And the MIC [2, 29]?
Answer: The MIC was 500 µg/mL.

Question: What about the MIC [2, 30] of the same compound?
Answer: Its MIC is 500 µg/mL.

Question: What about the “reduction of bacteria” value [3, 31] of the same compound?
Answer: Its value is “significant reduction in bacteria”.

Question: And the “reduction of bacteria” value [3, 32]?
Answer: Its value is “no reduction of bacteria”.

Question: What about the “stability in aqueous solution” value [4] of the same compound?
Answer: The value was “highly stable”.

Question: What about the “OD600 (growth curves)” value [5] of the same compound?
Answer: The value was “dramatically reduced”.
